Results published in paper PMC6556873, “Rapid Covalent-Probe Discovery by Electrophile-Fragment Screening” (Journal of the American Chemical Society, 2019).
Read-outs that look alike come from different tables or passages of the source.

Experiments:
BSA = biological target: T1, BSA (Bos taurus, UniProt P02769); design: Intact protein LC/MS covalent labelling, fragments in pools of five, 200 uM each, 4 °C; details: 24 h, 4 °C, pool of five; 200 µM; covalent
T1 construct: gene ALB

NNMT (hNNMT) = biological target: T2, NNMT (hNNMT) (Homo sapiens, UniProt P40261); design: Intact protein LC/MS covalent labelling, fragments in pools of five, 200 uM each, 4 °C; details: 24 h, 4 °C, pool of five; 200 µM; covalent
T2 construct: wild type, N-terminal His6 tag kept (no cleavage described), E. coli, construct 31248 Da
T2 sequence (P40261 1-264): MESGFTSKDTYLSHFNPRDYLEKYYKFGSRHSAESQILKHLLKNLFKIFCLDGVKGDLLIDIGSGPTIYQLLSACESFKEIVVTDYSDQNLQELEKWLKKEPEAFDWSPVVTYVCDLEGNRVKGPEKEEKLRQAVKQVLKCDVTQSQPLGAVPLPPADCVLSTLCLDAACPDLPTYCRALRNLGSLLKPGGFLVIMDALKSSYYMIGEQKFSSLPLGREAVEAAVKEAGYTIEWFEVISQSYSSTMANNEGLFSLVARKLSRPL

NUDT7 = biological target: T3, NUDT7 (Homo sapiens, UniProt P0C024); design: Intact protein LC/MS covalent labelling, fragments in pools of five, 200 uM each, 4 °C; details: 24 h, 4 °C, pool of five; 200 µM; covalent
T3 construct: residues 14-235, E. coli, pNIC28-Bsa4, N-terminal His6 tag removed by TEV, construct 26672 Da
T3 sequence (P0C024 14-235): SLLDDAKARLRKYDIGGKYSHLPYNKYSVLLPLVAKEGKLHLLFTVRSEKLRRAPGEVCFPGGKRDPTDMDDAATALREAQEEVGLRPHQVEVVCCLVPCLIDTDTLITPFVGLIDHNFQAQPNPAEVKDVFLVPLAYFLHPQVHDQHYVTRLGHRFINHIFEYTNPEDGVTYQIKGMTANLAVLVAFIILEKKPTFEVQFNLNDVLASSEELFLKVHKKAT

OTUB2 (OTUB2A) = biological target: T4, OTUB2 (OTUB2A) (Homo sapiens, UniProt Q96DC9); design: Intact protein LC/MS covalent labelling, fragments in pools of five, 200 uM each, 4 °C; details: 24 h, 4 °C, pool of five; 200 µM; covalent
T4 construct: full length residues 1-234, E. coli BL21(DE3)-R3, His tag removed by TEV, construct 27312 Da
T4 sequence (Q96DC9 1-234): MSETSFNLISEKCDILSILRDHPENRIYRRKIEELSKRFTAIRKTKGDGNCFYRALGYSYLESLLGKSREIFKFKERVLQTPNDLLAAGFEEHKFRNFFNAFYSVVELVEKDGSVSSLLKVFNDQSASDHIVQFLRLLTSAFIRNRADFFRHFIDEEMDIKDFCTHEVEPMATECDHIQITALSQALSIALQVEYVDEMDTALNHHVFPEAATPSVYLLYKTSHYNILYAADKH

PCAF = biological target: T5, PCAF (Homo sapiens, UniProt Q92831); design: Intact protein LC/MS covalent labelling, fragments in pools of five, 200 uM each, 4 °C; details: 24 h, 4 °C, pool of five; 200 µM; covalent
T5 construct: gene KAT2B
T5 sequence (Q92831 whole entry, the tested form may be a part): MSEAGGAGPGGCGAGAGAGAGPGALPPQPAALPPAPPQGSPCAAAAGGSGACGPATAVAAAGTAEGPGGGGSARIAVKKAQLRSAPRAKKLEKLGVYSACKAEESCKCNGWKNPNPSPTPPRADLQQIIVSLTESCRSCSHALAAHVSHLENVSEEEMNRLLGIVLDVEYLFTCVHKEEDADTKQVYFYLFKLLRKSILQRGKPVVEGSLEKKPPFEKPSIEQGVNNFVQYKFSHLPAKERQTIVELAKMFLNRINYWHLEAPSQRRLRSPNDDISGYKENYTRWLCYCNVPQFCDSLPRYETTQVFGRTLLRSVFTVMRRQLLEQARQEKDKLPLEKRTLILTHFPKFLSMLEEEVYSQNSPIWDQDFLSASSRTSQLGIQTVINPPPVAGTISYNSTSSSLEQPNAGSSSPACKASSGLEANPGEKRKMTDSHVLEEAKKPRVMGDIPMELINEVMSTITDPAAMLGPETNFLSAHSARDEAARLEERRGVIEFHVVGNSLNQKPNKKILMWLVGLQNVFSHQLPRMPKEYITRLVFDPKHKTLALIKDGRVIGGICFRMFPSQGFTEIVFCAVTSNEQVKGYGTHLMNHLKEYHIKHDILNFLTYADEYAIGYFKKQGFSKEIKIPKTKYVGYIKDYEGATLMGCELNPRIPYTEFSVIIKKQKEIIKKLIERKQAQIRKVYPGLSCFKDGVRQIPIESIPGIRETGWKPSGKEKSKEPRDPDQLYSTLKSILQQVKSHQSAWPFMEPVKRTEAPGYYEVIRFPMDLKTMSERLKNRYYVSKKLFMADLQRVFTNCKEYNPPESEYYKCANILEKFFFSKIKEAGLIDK

in vitro [1] = experiment: in vitro; design: species or system CCD841, HEK293; details: human, hb2 cells, read-out: HB-2 Cells Viability (%)
in vitro [2] = experiment: in vitro; design: species or system HB2, HEK293; details: human, ccd841 cells
in vitro [3] = experiment: in vitro; design: species or system HB2, CCD841; details: human, hek293 cells

T1 sequence (P02769 whole entry, the tested form may be a part): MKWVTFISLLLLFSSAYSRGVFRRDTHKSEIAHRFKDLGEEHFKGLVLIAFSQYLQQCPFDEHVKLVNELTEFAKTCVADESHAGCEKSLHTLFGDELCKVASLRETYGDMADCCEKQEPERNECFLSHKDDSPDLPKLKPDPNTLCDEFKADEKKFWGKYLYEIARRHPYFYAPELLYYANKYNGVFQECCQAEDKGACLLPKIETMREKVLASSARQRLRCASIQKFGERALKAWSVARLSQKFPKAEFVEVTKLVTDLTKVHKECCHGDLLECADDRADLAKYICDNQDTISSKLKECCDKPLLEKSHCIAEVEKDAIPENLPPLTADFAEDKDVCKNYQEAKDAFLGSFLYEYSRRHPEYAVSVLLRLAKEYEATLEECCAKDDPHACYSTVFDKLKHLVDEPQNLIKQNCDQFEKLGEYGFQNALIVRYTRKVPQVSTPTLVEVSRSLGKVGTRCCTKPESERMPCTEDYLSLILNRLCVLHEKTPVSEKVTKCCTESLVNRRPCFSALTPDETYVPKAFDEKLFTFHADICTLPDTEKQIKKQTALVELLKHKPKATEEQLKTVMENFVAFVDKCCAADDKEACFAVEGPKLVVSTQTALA

SMILES	BSA (BSA)	NNMT (NNMT (hNNMT))	NUDT7 (NUDT7)	OTUB2 (OTUB2 (OTUB2A))	PCAF (PCAF)	viability at 48 h, 10 µM (in vitro [1]) [%]	viability at 48 h, 10 µM (in vitro [2]) [%]	viability at 48 h, 10 µM (in vitro [3]) [%]
Cc1ccccc1C(C)NC(=O)CCl (stereo not shown) [PCM-0102390]	0	0.26	0.1	0.26	0	92.8	71.4	75.8
N#CC1(NC(=O)CCl)CCCCC1 [PCM-0102993]	0	0	0.08	0	0	87.6	83.3	66
CC(C)C(C)(C#N)NC(=O)CCl (stereo not shown) [PCM-0102626]	0	0	0	0	0	96.4	82.1	89.9
O=C(CCl)Nc1ccccc1F [PCM-0102158]	0	0	0	0.51	0	50	59	34.2
CC(C)c1ccc(NC(=O)CCl)cc1 [PCM-0102532]	0	0.68	0.18	0.33	0	12.7	40.4	7.1
CN(Cc1cccc(F)c1)C(=O)CCl [PCM-0102747]	0	0	0	0	0	64.5	73.1	46.1
CC1CCC2(CC1)NC(=O)N(NC(=O)CCl)C2=O (stereo not shown) [PCM-0102666]	0	0	0	0	0	97.3	79.9	99.9
COCC(=O)NC(=O)CCl [PCM-0102904]	0	0	0	0	0	101	116	105
CC(C)(C)NC(=O)CN1CCN(C(=O)CCl)CC1.Cl [PCM-0102302]	0	0.24	0.08	0.13	0	97	98.9	84.4
O=C(CCl)Nc1cccc(C(F)(F)F)c1 [PCM-0102290]	0	0.77	0.12	0.26	0	9.5	40	2.3
O=C(CCl)NC(=O)NC1CCCCC1 [PCM-0102692]	0	0.76	0	0	0	48.7	70.7	62.3
Cc1ccc(S(N)(=O)=O)cc1NC(=O)CCl [PCM-0102744]	0	0.17	0	0.1	0	54.4	61.4	19.7
O=C(CCl)Nc1ccccc1C(F)(F)F [PCM-0102170]	0	0.12	0	0	0	96.7	99.1	72.6
Cc1ccc(S(=O)(=O)NC(=O)CCl)cc1 [PCM-0102850]	0	0	0	0.13	0	101	114	81.4
CC(NC(=O)CCl)c1ccc(F)cc1 (stereo not shown) [PCM-0102228]	0	0	0.07	0.2	0	84.6	83.2	63.8
O=C(CCl)N1CCN(c2ccccc2Cl)CC1 [PCM-0102297]	0	0.15	0.35	0	0	2.3	52	3.9
O=C(CCl)NC1CCN(C(=O)C2CCCCC2)CC1 [PCM-0102931]	0	0	0	0.09	0	82.9	78.6	118
CC(C)(C)C(NC(=O)CCl)c1cccs1 (stereo not shown) [PCM-0102773]	0	0	0.09	0	0	86.9	72.8	63.6
C=CC(=O)N1CCC(c2nccn2C)C1 (stereo not shown) [PCM-0102553]	0	0.11	0	0	0	99.3	128	103
O=C(CCl)Nc1ccccc1N1CCCC1=O [PCM-0102375]	0	0	0	0.13	0	79.6	78	51.9
